Legend:
ceramidase = assay: Ceramidase activity assay in lysate of treated INS1 cells; assay type: cell-based, rat; details: INS1 cells treated 20 μM 24 h
Experimental: INS1 cells were cultured in 10 cm dish and treated with AdipoRon or AdipoRonPEG5 (20 μM) for 24 h. Remove the media and collect cells using a cell scraper and transfer cells to a 1.5 ml tube. Centrifuge to spin down the cells before freezing in liquid nitrogen. Cell pellets were stored at –80°C till analysis. During analysis, INS1 cell pellets on dry ice were mixed with 500 μl of Dulbecco PBS with Ca^2+ and Mg^2+. The sample was then immediately placed on ice and lysed with a tissue disruptor probe (Fisher Scientific, Model FB50, Waltham MA) by performing five short disruption cycles at a power of 30% (3 s each cycle). Briefly perform a gentle vortexing of the vial. Take an aliquot of 50 μl of sample for protein determination (Pierce™ BCA Protein Assay Kit, Thermo Fisher Scientific). In total, 400 μl of lysate was transferred to a culture borosilicate glass tube containing 1.6 ml of Dulbecco PBS with Ca^2+ and Mg^2+ on ice. […] All the samples and serial dilutions were analyzed by injecting 1 μl in the LC-MS/MS system: Shimadzu LCMS-8060 triple-quadrupole mass spectrometer coupled to a Nexera X2 UHPLC chromatograph (Shimadzu Scientific Instruments, Columbia, MD) operating the dual ion source (DUIS) in electrospray positive ionization mode. […]

[1] = system: AMPK and ACC phosphorylation; assay: Western blot of AMPK and ACC phosphorylation in liver and subcutaneous adipose tissue; assay type: in vivo, mouse
Experimental: Protein was extracted from the adipose tissue by homogenization in PBS supplemented with 1 mM EDTA, 20 mM NaF, 2 mM Na3VO4, and protease inhibitor cocktail. 5× RIPA buffer was added to the homogenate for a final concentration of 10 mM Tris-HCl, 2 mM EDTA, 0.3% NP40, 0.3% deoxycholate, 0.1% SDS, and 140 mM NaCl, pH 7.4. The sample was centrifuged at 10,000 g for 5 min. In total, 20–50 μg/lane of supernatant protein was separated by SDS-PAGE (NP0335BOX, Thermo Fisher) and transferred to nitrocellulose membrane. The blots were then incubated overnight at 4°C with primary antibodies (1:1,000) in a 1% BSA TBST-blocking solution. Primary antibodies are listed in supplemental Table S3. Primary antibodies were detected using secondary antibodies labeled with infrared dyes emitting at 700 nm or 800 nm (1:5,000, Li-Cor Bioscience 925-68073 and 926-32213, respectively) The Odyssey Infrared Imager was used to visualized western blots with Li-Cor IRdye secondary antibodies.

SMILES: O=C(COc1ccc(C(=O)c2ccccc2)cc1)NC1CCN(Cc2ccc(OCCOCCOCCOCCOCCO)cc2)CC1 [AdipoRonPEG5]
- ceramidase activity / labeled ceramide levels in cell lysate (ceramidase): reduced levels of labeled ceramides
- ACC phosphorylation in the subcutaneous adipose tissue ([1]; single treatment): enhanced
- AMPK pathway in the liver ([1]; single treatment): activated

SMILES: O=C(COc1ccc(C(=O)c2ccccc2)cc1)NC1CCN(Cc2ccccc2)CC1 [AdipoRon]
- ceramidase activity / labeled ceramide levels in cell lysate (ceramidase): remained essentially the same as untreated control
- p-AMPK levels in the liver, AdipoRon versus AdipoRonPEG5 ([1]; HFD-induced obese mice): higher
